Measured values as given in the supplement of paper PMC11451515.

System: P12-Ichikawa
Assay: cell viability relative to DMSO control; higher = less cytotoxic
Settings: 48 h
Outline: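 In 1536-well plates, 5 μl of leukemia cells were seeded per well: 500 cells/well for NOMO1 or SEM and 1000 cells/well for P12-Ichikawa. Each line had first been adapted for at least four passages in each medium. Library compounds in DMSO were pin-dosed at 11 threefold concentrations between 47 μM and 0.79 nM, and CellTiter-Glo One luminescence was read after 48 h at 37°C. Viability is a per-plate percentage relative to DMSO wells, with cell-free wells as background.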

[1] = HPLM + 10% dialyzed FBS, 0.000781 µM
[2] = HPLM + 10% dialyzed FBS, 0.00234 µM
[3] = HPLM + 10% dialyzed FBS, 0.00702 µM
[4] = HPLM + 10% dialyzed FBS, 0.0211 µM
[5] = HPLM + 10% dialyzed FBS, 0.0632 µM
[6] = HPLM + 10% dialyzed FBS, 0.19 µM
[7] = HPLM + 10% dialyzed FBS, 0.569 µM
[8] = HPLM + 10% dialyzed FBS, 1.71 µM
[9] = HPLM + 10% dialyzed FBS, 5.12 µM
[10] = HPLM + 10% dialyzed FBS, 15.4 µM
[11] = HPLM + 10% dialyzed FBS, 46.1 µM
[12] = RPMI 5 mM glucose + 10% FBS, 0.000781 µM
[13] = RPMI 5 mM glucose + 10% FBS, 0.00234 µM
[14] = RPMI 5 mM glucose + 10% FBS, 0.00702 µM
[15] = RPMI 5 mM glucose + 10% FBS, 0.0211 µM
[16] = RPMI 5 mM glucose + 10% FBS, 0.0632 µM
[17] = RPMI 5 mM glucose + 10% FBS, 0.19 µM
[18] = RPMI 5 mM glucose + 10% FBS, 0.569 µM
[19] = RPMI 5 mM glucose + 10% FBS, 1.71 µM
[20] = RPMI 5 mM glucose + 10% FBS, 5.12 µM
[21] = RPMI 5 mM glucose + 10% FBS, 15.4 µM
[22] = RPMI 5 mM glucose + 10% FBS, 46.1 µM
[23] = RPMI 5 mM glucose + 10% dialyzed FBS, 0.000781 µM
[24] = RPMI 5 mM glucose + 10% dialyzed FBS, 0.00234 µM
[25] = RPMI 5 mM glucose + 10% dialyzed FBS, 0.00702 µM
[26] = RPMI 5 mM glucose + 10% dialyzed FBS, 0.0211 µM
[27] = RPMI 5 mM glucose + 10% dialyzed FBS, 0.0632 µM
[28] = RPMI 5 mM glucose + 10% dialyzed FBS, 0.19 µM
[29] = RPMI 5 mM glucose + 10% dialyzed FBS, 0.569 µM
[30] = RPMI 5 mM glucose + 10% dialyzed FBS, 1.71 µM
[31] = RPMI 5 mM glucose + 10% dialyzed FBS, 5.12 µM
[32] = RPMI 5 mM glucose + 10% dialyzed FBS, 15.4 µM
[33] = RPMI 5 mM glucose + 10% dialyzed FBS, 46.1 µM

Structure (SMILES)	cell viability [1] [%]	cell viability [2] [%]	cell viability [3] [%]	cell viability [4] [%]	cell viability [5] [%]	cell viability [6] [%]	cell viability [7] [%]	cell viability [8] [%]	cell viability [9] [%]	cell viability [10] [%]	cell viability [11] [%]	cell viability [12] [%]	cell viability [13] [%]	cell viability [14] [%]	cell viability [15] [%]	cell viability [16] [%]	cell viability [17] [%]	cell viability [18] [%]	cell viability [19] [%]	cell viability [20] [%]	cell viability [21] [%]	cell viability [22] [%]	cell viability [23] [%]	cell viability [24] [%]	cell viability [25] [%]	cell viability [26] [%]	cell viability [27] [%]	cell viability [28] [%]	cell viability [29] [%]	cell viability [30] [%]	cell viability [31] [%]	cell viability [32] [%]	cell viability [33] [%]
Cn1c(Nc2ccc(C(F)(F)F)cc2)nc2cc(Oc3ccnc(-c4nc(C(F)(F)F)c[nH]4)c3)ccc21	120	112	119	93	133	125	126	123	111	81.8	27.1																						
COc1cc2c(Oc3ccc(NC(=O)C4(C(=O)Nc5ccc(F)cc5)CC4)cc3F)ccnc2cc1OCCCN1CCOCC1	86.3	90.5	87	88.8	81.2	81.8	78.5	38.7	8.94	8.26	5.1	83.8	90.3	84.8	83.5	85.7	74.3	77.1	59.5	10	11	4.54	86.2	82.9	86.6	89.3	85.4	80	88.2	44.6	14.7	12.4	4.34
CC(=O)Nc1ccc([C@H](C)C(=O)Nc2ncc(C(C)C)s2)cc1	97.9	101	94.5	98.4	100	92.1	96.7	94.4	89.9	24.6	5.24	95.6	96.9	101	95.1	93.3	93.8	97.6	107	101	26	6.22	99.3	89.5	97.2	99.5	110	101	99.4	99.7	83.7	22.8	5.31
ClC1=CC(=CC=C1)N2CCN(CCCN3\N=C4\C=C/C=C\N4C3=O)CC2	118	120	120	134	128	132	134	142	140	134	139																						
CCOc1cc(N)c(Cl)cc1C(=O)NCC1CN(Cc2ccc(F)cc2)CCO1 (configuration not stated)	104	110	106	110	110	111	109	100	119	112	109	107	116	106	112	109	115	115	115	115	119	112	99.3	106	106	102	108	117	107	112	106	105	104
CCCCNc1cc(C(=O)O)cc([S+](N)(=O)[O-])c1Oc1ccccc1	117	116	118	116	124	120	121	118	117	128	127												111	119	115	115	118	117	116	113	124	124	116
CC(=O)O[C@@]1(CC[C@H]2[C@@H]3\C=C(C)/C4=C/C(=O)CC[C@]4(C)[C@H]3CC[C@]12C)C(C)=O	99.7	115	109	114	109	117	112	112	115	106	89.1	101	107	110	117	115	117	120	109	100	99.5	85.5	94.9	102	101	112	103	108	106	107	98.2	93.2	79
O=C(O)c1ccc(-n2nc(-c3ccccc3O)nc2-c2ccccc2O)cc1	96.8	114	104	107	104	108	108	99.9	82	70	48.9	82.8	94.8	107	99.8	102	104	101	104	73.3	53.3	29.3	86.7	103	105	96.2	95.5	102	102	96.7	79.7	55.7	22.2
NC(CO)(CO)CCc1ccc(Sc2cccc(OCc3ccccc3)c2)cc1Cl	99.1	101	110	114	115	122	88.5	106	76.2	18.4	6.24	91.8	99.7	101	111	102	102	86.4	104	72.1	34.9	5.17	101	112	99.6	116	113	109	89.9	100	70.3	45.7	5.62
